The source of these data is patent US10406162B2, “Substituted 2,3-dihydroimidazo[1,2-C]quinazoline-containing combinations” (BAYER PHARMA AKTIENGESELLSCHAFT, priority 2015, dated 2019).

In data set [1] the test system is MFE-280 cells. The data set can be described thus: 48-hour caspase 3/7 activation assay (apoptosis induction). Particulars: single agent. Format: cell-based. How it is done: (§1) In vitro combination assessment: The effects of combinations of the present invention were evaluated using combination index isobologram analysis for in vitro assessment. The efficacy parameters were the effects in a 48-hour caspase 3/7 activation assay. Briefly, cells were plated in 384-well plate with 25 μL medium. After 24 hours, 5 μL of experimental media containing: • either A alone, or • B alone, or • the combination of A (as component A) plus either B, (as component B), at different ratios (***) were used to make serial 3-fold dilutions to generate response curves with 7 concentrations. Experiments were conducted in triplicates. Caspase 3/7 assay was conducted at 48 hours after compound exposure.
FIG. 1: Synergistic combination of PI3K inhibitor compound A (Copanlisib) with FGFR inhibitor compound B in MFE-280 cells (PIK3CA^G1047Y, FGFR2^S252W). The combination of PI3K inhibitor compound A (copanlisib) and FGFR inhibitor compound B was tested and compared to the single agent activity in MFE 280 to address the activity in apoptosis induction using a cleaved caspase 3/7 assay. MFE 280 cells are bearing both activating PIK3CA and FGFR2 mutations.

Data set [2] deals with MFE-296 cells. The data set is described as above. Format: cell-based. The following applies: single agent. How it is done: as §1
FIG. 2: Synergistic combination of PI3K inhibitor compound A (Copanlisib) with FGFR inhibitor compound B in MFE-296 cells (PTEN^del, FGFR2^N549K). The combination of PI3K inhibitor compound A (copanlisib) and FGFR inhibitor compound B was tested and compared to the single agent activity in MFE 296 to address the activity in apoptosis induction using a cleaved caspase 3/7 assay. MFE 296 cells are bearing activating FGFR2 mutation and loss-of-PTEN.

The test system of data set [3] is MFE 280 xenograft tumor model. Briefly: In vivo efficacy in tumor xenograft model. On the set-up: species or system nude mice. Particulars: for T/C (tumor area) / T/C (tumor weight): study end. How it is done:
(§2) The in vivo efficacy was evaluated in tumor xenograft models in nude mice with established human tumor cell lines at the MTD and sub-MTD dosages. Tumor cells were cultivated according to ATCC protocols in recommended media contained 10% FCS. Cells were harvested for transplantation in a subconfluent (70%) state. The volume of implantation was 100 μl for mice. When the tumors were approximately in size of 25-50 mm^2, the animals were randomized to treatment and control groups and treatment was started. Treatment of each animal was based on individual body weight. The optimal formulation, application route and schedule were used for each compound (see table 2). Oral administration (p.o.) was carried out via a gastric tube. The oral application volumes were 10 ml/kg and the intravenous application volumes were 10 ml/kg. Tumor area (product of the longest diameter and its perpendicular) using a caliper. The animal body weight was monitored as a measure for treatment-related toxicity. Measurement of tumor area and body weight was performed 2-3 times weekly. T/C ratios (Treatment/Control) were calculated with final tumor areas. Treatment responses were evaluated by means of the clinically-used RECIST criteria (complete response, partial response, stable disease and progressive disease) and response rates were calculated accordingly (RR=number of animals with complete and partial response).
FIGS. 3A and 3B: Synergistic combination of PI3K inhibitor compound A (Copanlisib) with FGFR inhibitor compound B in MFE-280 xenograft tumor model. The combination of PI3K inhibitor compound A (copanlisib) and FGFR inhibitor compound B was tested and compared to the single agent activity and the SoC doxorubicin in MFE 280, an endometrial tumor model bearing both activating PIK3CA and FGFR2 mutations. At a tumor size of about 40 mm^2 the subcutaneously growing MFE-280 tumors were treated intravenously with two different doses of compound A (copanlisib), 14 (filled triangles)/10 (open triangles) mg/kg, and 7 mg/kg) and in combination of compound A and compound B. The dosing schedule for compound A is depicted in FIG. 3A with triangles. […] Doxorubicin was applied intravenously 1 time every 14 days as a SoC reference.

Data set [4] relates to RUCA. Briefly: IC50 in endometrial cancer cell lines (untitled table). Format: cell-based. Particulars: PTEN^del, ER+, Type I.
Data set [5] deals with ECC-1. The description is as above. In kind it is cell-based. Particulars: Homo sapiens, PTEN^del, PIK3R1^mut, ER+, PR+, Type I.
Data set [6] concerns Ishikawa. The data set is described as above. Format: cell-based. Particulars: Homo sapiens, PTEN^del, PIK3R1^mut, ER+, PR+, Type I.
Data set [7] has as its system HEC-50. The data set is described as above. Format: cell-based. Particulars: Hec50, PIK3R1^mut, KRAS^mut, Type II.
Data set [8] deals with RL95-2. The data set is described as above. In kind it is cell-based. The following applies: Homo sapiens, PIK3R1^mut/PTEN^del/NF2/BRCA2, Type II.
Data set [9] concerns KLE. The description is as above. In kind it is cell-based. The following applies: Homo sapiens, FBXW7^mut, Type II.
The test system of data set [10] is HEC-1B. The data set is described as above. In kind it is cell-based. Particulars: Homo sapiens, PIK3CA^mut, PIK3R2^mut, PTEN^Loss(protein) and KRAS^mut, Type II.
The test system of data set [11] is AN3CA. Described as above. Particulars: Homo sapiens, AN3-CA, PTEN^del, FBXW7, FGFR2^N549K, K310R, Type II. In kind it is cell-based.
Data set [12] deals with HEC-1A. The description is as above. Format: cell-based. The following applies: Homo sapiens, PIK3CA^G1049R, PIK3R2^mut, KRAS^mut, Type II.
Data set [13] has as its system MFE 280. Described as above. In kind it is cell-based. Particulars: Homo sapiens, PIK3CA^G1047Y, RB^del, FGFR2^5252W, Type II.
In data set [14] the test system is MFE 296. The description is as above. Format: cell-based. The following applies: Homo sapiens, PTEN^del, FGFR2^N549K, UTX^del, Type II.
Data set [15] can be described thus: Body weight as a measure for treatment-related toxicity in MFE-280 xenograft study. Particulars: mouse, in vivo, 7 mg/kg. How it is done:
as §2, with “response). […]” for “response).”

The nature of data set [16]: Phase I dose escalation study, maximum tolerated dose. The following applies: human, in vivo, iv; intravenously over 60 minutes on days 1, 8, 15 of every 28 day cycle. How it is done:
(§3) In a phase I dose escalation study, subjects were treated with Compound A (copanlisib) administered intravenously over 60 minutes on days 1, 8, and 15 of every 28 day cycle. Seventeen subjects were treated in 5 dose escalation cohorts (0.1, 0.2, 0.4, 0.8, and 1.2 mg/kg), and the maximum tolerated dose (MTD) was determined to be 0.8 mg/kg. Additional patients were enrolled into the study in 3 expansion cohorts treated at the MTD to assess safety, pharmacokinetics, biomarkers, and clinical benefit in selected patient populations, including solid tumors (n=25), non-Hodgkin lymphoma (NHL; n=9), and diabetic solid tumor patients (n=6; treated at 0.4 mg/kg).

The subject of data set [17] is endometrial cancer. Briefly: Phase I study, clinical outcomes in endometrial cancer patients. In kind it is in vivo, human. How it is done: as §3
PIK3CA, BRAF, and KRAS mutations were tested using digital PCR on archival tumor samples and cell free DNA isolated from plasma. Next generation sequencing (NGS) of a panel of tumor genes and immunohistochemistry (IHC) for PTEN protein were also performed on archival tumor samples. […] Of the 2 endometrial cancer patients with extended SD lasting more than 8 cycles, PTEN data could only be generated for 1 (patient #2117), and this tumor was also PTEN-negative by IHC (Table 4). The other endometrial cancer patient with extended SD (with 24.3% tumor shrinkage) harbored a KRAS tumor mutation (Table 4). […] Activation of PI3K pathway signaling via a number of mechanisms alone or in combination, such as PTEN loss and/or mutation, PIK3CA mutation, and/or KRAS mutation, may enrich Compound A (copanlisib) activity in this population.

Setting [18] is: Doxorubicin Q14D (SoC reference).
Where [19] appears, read: Compound A (14)10 mg/kg i.v. Q2D.
Setting [20] is: Pt 2004, 0.4 mg/kg (40 mg), stage IV.
[21] abbreviates: Pt 2116, 0.8 mg/kg (59 mg), stage IV.
Setting [22] is: Pt 2117, 0.8 mg/kg (51 mg), stage IIIC.

On to `COCc1c(-c2cc3cc(C)cc(OC)c3s2)c2c(N)ncnn2c1CN1CCNC(=O)C1` [Compound B, 4-{[4-Amino-6-(methoxymethyl)-5-(7-methoxy-5-methyl-1-benzothiophen-2-yl)pyrrolo[2,1-f][1,2,4]triazin-7-yl]methyl}piperazin-2-one], for which the “concentration up to which no apoptosis induction was shown (cleaved caspase 3/7)” value in data set [1] was more than 10 µM. In addition, in data set [2], the “concentration up to which no apoptosis induction was shown (cleaved caspase 3/7)” value was more than 10 µM. In addition, in data set [3] (Compound B 75 mg/kg p.o. QD), the “CR (complete response)” value is reported as 12.5%, the “PD (progressive disease)” value was found to be 12.5%, the “PR (partial response)” value was found to be 0% and the “RR (response rate)” value turned out to be 12.5%. Also, in data set [3] (Compound B 75 mg/kg p.o. QD), the “T/C (tumor area)” value is listed as 0.39 and the “T/C (tumor weight)” value came out at 0.22. Moreover, the tumor growth inhibition in [3] (compound B, at the end of the study) was found to be 78%.
Turning to `COc1cccc2c1C(=O)c1c(O)c3c(c(O)c1C2=O)C[C@@](O)(C(=O)CO)C[C@@H]3O[C@H]1C[C@H](N)[C@H](O)[C@H](C)O1` [Doxorubicin, reference compound], in data set [3] (setting [18]), the “CR (complete response)” value is listed as 0%, the “PD (progressive disease)” value stood at 37.5%, the “PR (partial response)” value was 12.5% and the “RR (response rate)” value is recorded as 12.5%. Further, in [3] (setting [18]), the “T/C (tumor area)” value was determined as 0.51 and the “T/C (tumor weight)” value came out at 0.39. In addition, in data set [3] (SoC Doxorubicin), the “tumor growth inhibition assessed by tumor weight” value is listed as 61%.
Turning to `COc1c(OCCCN2CCOCC2)ccc2c1N=C(NC(=O)c1cnc(N)nc1)N1CCN=C21` [Compound A, 2-amino-N-[7-methoxy-8-(3-morpholin-4-ylpropoxy)-2,3-dihydroimidazo[1,2-c]quinazolin-5-yl]pyrimidine-5-carboxamide], the IC50 (in general, the concentration that gives 50% inhibition) in [4] is 13.7 nM; in data set [5], 161 nM; in data set [6], 373 nM; in [7], 64.6 nM; in [8], 144 nM; in data set [9], less than 6.86 nM. Also, the IC50 in data set [10], in data set [11], in [12], in data set [13] and in data set [14] was less than 6.86 nM each time. Further, the “concentration up to which no apoptosis induction was shown (cleaved caspase 3/7)” value in data set [1] and in [2] was more than 5 µM each time. Moreover, the “CR (complete response)” value in [3] (Compound A 7 mg/kg i.v. Q2D) and in data set [3] (setting [19]) was 0% in each case. Besides, the “PD (progressive disease)” value in data set [3] (Compound A 7 mg/kg i.v. Q2D) was 25%; in [3] (setting [19]), 0%. For the same compound, the “PR (partial response)” value in [3] (Compound A 7 mg/kg i.v. Q2D) was 25%; in data set [3] (setting [19]) it was 37.5%. Moreover, the results for the “RR (response rate)” value in data set [3] (Compound A 7 mg/kg i.v. Q2D) and in data set [3] (setting [19]) were 25% and 37.5%, respectively. In addition, the “T/C (tumor area)” value is 0.40 in [3] (Compound A 7 mg/kg i.v. Q2D) and 0.34 in data set [3] (setting [19]). For the same compound, the “T/C (tumor weight)” value in data set [3] (Compound A 7 mg/kg i.v. Q2D) was determined as 0.24; in data set [3] (setting [19]), 0.16. The “reduction of tumor weight” value in data set [3] (compound A 7 mg/kg) is approximately 76%; in [3] (compound A (14)10 mg/kg), “approximately 84%”. Further, the “body weight loss compared to starting body weight” value in [15] is listed as “No body weight loss”. In [16], the MTD (commonly the largest dose that counted as tolerated) was 0.8 mg/kg. Also, the “clinical benefit (patients with CR, PR or SD)” value in [17] (4 of 5 endometrial cancer patients) came to 80%. Besides, the “Best % change in tumor size from screening” value in data set [17] (setting [20]) is reported as −24.3%; in data set [17] (Pt 2008, 0.8 mg/kg (40 mg), stage IV) it was 2.4%; in [17] (setting [21]) it was −8.7%; in data set [17] (setting [22]), −9.1%; in data set [17] (Pt 3106, 0.8 mg/kg (46 mg, then 37 mg), stage IV) it was −61.8%. Besides, the Best response result in data set [17] (setting [20]) is listed as “SD 8 cycles”; in [17] (setting [21]), “SD 2 cycles”; in data set [17] (setting [22]) it was “SD 8 cycles”. Also, the tumor shrinkage in data set [17] (endometrial cancer patient with extended SD and KRAS tumor mutation) turned out to be 24.3%.
